Experimental data from article PMC3330828 (2012).

Assays:
caspase-1 = biological target: T1, caspase-1 (Homo sapiens, UniProt P29466); test: in vitro fluorometric enzyme assay; type: biochemical
T1 sequence (P29466 120-297): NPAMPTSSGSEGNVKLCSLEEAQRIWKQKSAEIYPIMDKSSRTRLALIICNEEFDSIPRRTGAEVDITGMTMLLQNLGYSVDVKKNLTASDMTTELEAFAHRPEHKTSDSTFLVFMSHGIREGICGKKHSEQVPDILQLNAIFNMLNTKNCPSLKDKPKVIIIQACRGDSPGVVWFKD
T1 sequence (P29466 317-404): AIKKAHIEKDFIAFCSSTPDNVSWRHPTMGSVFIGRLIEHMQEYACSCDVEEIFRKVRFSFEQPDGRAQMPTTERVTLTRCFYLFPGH

caspase-3 = biological target: T2, caspase-3 (Homo sapiens, UniProt P42574); test: in vitro fluorometric enzyme assay; type: biochemical
T2 sequence (P42574 29-175): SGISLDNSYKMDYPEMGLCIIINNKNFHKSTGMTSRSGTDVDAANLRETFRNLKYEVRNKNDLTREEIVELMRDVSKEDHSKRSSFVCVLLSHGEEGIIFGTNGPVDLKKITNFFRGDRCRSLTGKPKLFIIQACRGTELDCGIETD
T2 sequence (P42574 176-277): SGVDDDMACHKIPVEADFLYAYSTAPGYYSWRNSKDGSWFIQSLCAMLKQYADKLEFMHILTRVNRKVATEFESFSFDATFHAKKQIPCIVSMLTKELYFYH

Row | Substance | IC50 (caspase-1) | IC50 (caspase-3)
1 | berkedrimane A [compound 1] | 100 µM | 200 µM
2 | berkedrimane B [compound 2] | 90 µM | 50 µM
